# In patent US11807835B2, “Detergent compositions containing a stabilized enzyme by phosphonates” (ECOLAB USA INC., priority 2016, dated 2023):
# Columns and labels:
# [1] = tested on: protease; experiment: Protease activity retention in detergent use solution (4000 ppm, 5 GPG water; peptidyl substrate, glycine buffer pH 9.0); format: biochemical; details: for Relative Protease Enzyme Activity: use solution at 120° F.
# Procedure: (§1) The enzyme activities in the detergents with different phosphonate levels were tested at 4000 ppm in 5 grains per gallon (GPG) water at 120° F. with various time points collected up to 4 hours, after a use solution was generated from the detergent composition. During the tests, the samples at different time points were collected and immediately frozen in an acetone/dry ice bath and stored in −80° C. before the activity of the enzyme was evaluated. For the use of such an assay, t=0 min was the reference point for 100% enzyme activity.
# (§2) Assays of enzyme activity in formulations (% retention) were conducted to simulate a presoak condition in a beaker using the chemistry, temperature, and pH conditions relevant to manual warewash or presoak applications. Enzyme activity is an indicator of the stability of the enzyme in the detergent, specifically in an aqueous use solution within a sump (which is under conditions of high pH, temperature and dilution).
# The analysis by protease assay was conducted as follows. For the assays, a detergent composition was used to generate an aqueous use solution evaluated herein.
# (§3) Enzyme activity under presoak or manual warewash conditions was traced quantitatively using a standard protease assay. Samples were prepared under bench top conditions, whereby the use solution from a detergent composition or detergent was obtained and maintained at a presoak or manual warewash temperature in a stirring water bath. After the time course for assessing enzyme stability is initiated, aliquots were taken at various time points and flash-frozen. A time=0 sample was prepared for each series by dissolving the detergent formulation at room temperature, mixing thoroughly, and flash freezing. Samples were thawed and diluted as necessary in an assay buffer usually for use in the protease assay. A glycine buffer at pH 9.0 is used here. The assay monitored the direct reaction of the protease on a small, commercially available peptidyl substrate, with liberation of the product providing correlation to the active enzyme content. The product was detected using a plate reader with an appreciable dynamic range (upper absorbance limit of the instrument >3.5). Enzyme activity levels were assessed relative to a calibration curve with average values for replicate tests used to map protease stability under presoak or manual warewash use conditions. Enzyme retention at each time point was calculated as the % enzyme activity relative to the time=0 sample.
# [2] = tested on: lipase; experiment: Lipase activity retention in detergent use solution (4000 ppm, 5 GPG water; p-nitrophenyl valerate, TRIS buffer pH 8.0); format: biochemical; details: Table 6E, phosphonate 0.3 wt-%, room temperature
# Procedure: as §1, with “activities in the detergents with different phosphonate levels were tested at 4000 ppm in 5 grains per gallon (GPG) water at 120° F. with various time points” left out
# as §2, §3
# The analysis by lipase and amylase assay was conducted similarly, except with a different substrate and buffers. For lipase activity, the substrate is p-nitrophenyl valerate, and for amylase, the substrate is an ethylidene substrate (EPS). The buffer used in lipase assay is TRIS (Tris(hydroxymethyl)aminomethane) buffer at pH 8.0, and in amylase assay HEPES (4-(2-hydroxyethyl)-1-piperazineethanesulfonic acid) buffer at pH 8.0.
structure (smiles),measurement,setting,value
"O=C(O)CCC(CC(=O)O)(C(=O)O)P(=O)(O)O (stereo not shown) [PBTC, Phosphonebutane tricarboxylic acid]",Relative Protease Enzyme Activity,"[1]; All Ash formula, phosphonate 0.3 wt-%, time 0 min",100.00%
same,Relative Protease Enzyme Activity,"[1]; All Ash formula, phosphonate 0.3 wt-%, time 5 min",11.99%
same,Relative Protease Enzyme Activity,"[1]; All Ash formula, phosphonate 0.3 wt-%, time 10 min",3.18%
same,Relative Protease Enzyme Activity,"[1]; All Ash formula, phosphonate 0.3 wt-%, time 20 min",−0.81%
same,Relative Protease Enzyme Activity,"[1]; All Ash formula, phosphonate 0.3 wt-%, time 40 min",−1.79%
same,Relative Protease Enzyme Activity,"[1]; All Ash formula, phosphonate 0.3 wt-%, time 60 min",−1.94%
same,Relative Protease Enzyme Activity,"[1]; All Ash formula, phosphonate 0.3 wt-%, time 90 min",−1.57%
same,Relative Protease Enzyme Activity,"[1]; All Ash formula, phosphonate 0.3 wt-%, time 120 min",−1.11%
same,Relative Protease Enzyme Activity,"[1]; All Ash formula, phosphonate 0.3 wt-%, time 150 min",−1.04%
same,Relative Protease Enzyme Activity,"[1]; All Ash formula, phosphonate 0.3 wt-%, time 180 min",−2.62%
same,Relative Protease Enzyme Activity,"[1]; All Ash formula, phosphonate 0.3 wt-%, time 210 min",−3.07%
same,Relative Protease Enzyme Activity,"[1]; All Ash formula, phosphonate 0.3 wt-%, time 240 min",−2.02%
same,Relative Protease Enzyme Activity,"[1]; base formula, phosphonate 0.3 wt-%, time 0 min",100.00%
same,Relative Protease Enzyme Activity,"[1]; base formula, phosphonate 0.3 wt-%, time 5 min",52.04%
same,Relative Protease Enzyme Activity,"[1]; base formula, phosphonate 0.3 wt-%, time 10 min",30.98%
same,Relative Protease Enzyme Activity,"[1]; base formula, phosphonate 0.3 wt-%, time 20 min",14.75%
same,Relative Protease Enzyme Activity,"[1]; base formula, phosphonate 0.3 wt-%, time 40 min",7.33%
same,Relative Protease Enzyme Activity,"[1]; base formula, phosphonate 0.3 wt-%, time 60 min",5.15%
same,Relative Protease Enzyme Activity,"[1]; base formula, phosphonate 0.3 wt-%, time 90 min",4.01%
same,Relative Protease Enzyme Activity,"[1]; base formula, phosphonate 0.3 wt-%, time 120 min",2.91%
same,Relative Protease Enzyme Activity,"[1]; base formula, phosphonate 0.3 wt-%, time 150 min",2.21%
same,Relative Protease Enzyme Activity,"[1]; base formula, phosphonate 0.3 wt-%, time 180 min",1.52%
same,Relative Protease Enzyme Activity,"[1]; base formula, phosphonate 0.3 wt-%, time 210 min",1.01%
same,Relative Protease Enzyme Activity,"[1]; base formula, phosphonate 0.3 wt-%, time 240 min",0.63%
same,Relative Protease Enzyme Activity,"[1]; base formula, phosphonate 0.6 wt-%, time 0 min",100.00%
same,Relative Protease Enzyme Activity,"[1]; base formula, phosphonate 0.6 wt-%, time 5 min",60.27%
same,Relative Protease Enzyme Activity,"[1]; base formula, phosphonate 0.6 wt-%, time 10 min",35.81%
same,Relative Protease Enzyme Activity,"[1]; base formula, phosphonate 0.6 wt-%, time 20 min",16.27%
same,Relative Protease Enzyme Activity,"[1]; base formula, phosphonate 0.6 wt-%, time 40 min",7.44%
same,Relative Protease Enzyme Activity,"[1]; base formula, phosphonate 0.6 wt-%, time 60 min",4.84%
same,Relative Protease Enzyme Activity,"[1]; base formula, phosphonate 0.6 wt-%, time 90 min",2.96%
same,Relative Protease Enzyme Activity,"[1]; base formula, phosphonate 0.6 wt-%, time 120 min",1.76%
same,Relative Protease Enzyme Activity,"[1]; base formula, phosphonate 0.6 wt-%, time 150 min",1.32%
same,Relative Protease Enzyme Activity,"[1]; base formula, phosphonate 0.6 wt-%, time 180 min",0.91%
same,Relative Protease Enzyme Activity,"[1]; base formula, phosphonate 0.6 wt-%, time 210 min",0.70%
same,Relative Protease Enzyme Activity,"[1]; base formula, phosphonate 0.6 wt-%, time 240 min",0.39%
same,Relative Protease Enzyme Activity,"[1]; base formula, phosphonate at 0.1% elemental phosphorus, time 0 min",100.00%
same,Relative Protease Enzyme Activity,"[1]; base formula, phosphonate at 0.1% elemental phosphorus, time 5 min",86.68%
same,Relative Protease Enzyme Activity,"[1]; base formula, phosphonate at 0.1% elemental phosphorus, time 10 min",55.40%
same,Relative Protease Enzyme Activity,"[1]; base formula, phosphonate at 0.1% elemental phosphorus, time 20 min",23.91%
same,Relative Protease Enzyme Activity,"[1]; base formula, phosphonate at 0.1% elemental phosphorus, time 40 min",8.20%
same,Relative Protease Enzyme Activity,"[1]; base formula, phosphonate at 0.1% elemental phosphorus, time 60 min",4.68%
same,Relative Protease Enzyme Activity,"[1]; base formula, phosphonate at 0.1% elemental phosphorus, time 90 min",2.99%
same,Relative Protease Enzyme Activity,"[1]; base formula, phosphonate at 0.1% elemental phosphorus, time 120 min",2.04%
same,Relative Protease Enzyme Activity,"[1]; base formula, phosphonate at 0.1% elemental phosphorus, time 150 min",1.54%
same,Relative Protease Enzyme Activity,"[1]; base formula, phosphonate at 0.1% elemental phosphorus, time 180 min",1.01%
same,Relative Protease Enzyme Activity,"[1]; base formula, phosphonate at 0.1% elemental phosphorus, time 210 min",0.73%
same,Relative Protease Enzyme Activity,"[1]; base formula, phosphonate at 0.1% elemental phosphorus, time 240 min",0.42%
same,enzyme activity of amine salt of the phosphonate versus non-neutralized phosphonate,"[1]; phosphonate neutralized with an amine, such as triethanolamine",much improved enzyme activity
same,Relative Lipase Enzyme Activity in a Use Solution,[2]; time 0 min,100.00%
same,Relative Lipase Enzyme Activity in a Use Solution,[2]; time 5 min,84.82%
same,Relative Lipase Enzyme Activity in a Use Solution,[2]; time 10 min,101.70%
same,Relative Lipase Enzyme Activity in a Use Solution,[2]; time 20 min,98.72%
same,Relative Lipase Enzyme Activity in a Use Solution,[2]; time 40 min,109.31%
same,Relative Lipase Enzyme Activity in a Use Solution,[2]; time 60 min,103.07%
